Test results: paper PMC11840788, “3,3′-Diindolylmethane (DIM): A Molecular Scaffold for Inhibition of WWP1 and WWP2, Members of the NEDD4 Family HECT E3 Ligases” (ACS Omega, 2025)

Target: WWP1 (Homo sapiens, UniProt Q9H0M0)
Assay: STD NMR binding, WWP1
Details: 500 μM ligand, 20 μM protein
Protocol: Given the similarities between WWP1 and WWP2 HECT domains, we speculated that the relatively low sensitivity of DSF may not be able to detect weak WWP2-I3C interactions and therefore opted to investigate further using STD NMR. STD NMR is a versatile ligand-based NMR approach, relying on selective saturation of the protein. This saturation is transferred to the ligand when and if the ligand binds, causing a reduction of the signal intensities. The STD intensities are calculated as the difference of the reference spectra (where selective saturation is off) minus the irradiated spectra, and they are proportional to the vicinity of the protein surface. […]
An Amicon centrifuge filter unit with a 10 kDa MW cutoff was used to exchange the protein in 25 mM d19-2,2-bis(hydroxymethyl)-2,2′,2″-nitrilotriethanol, 100 mM NaCl and 1.0 mM DTT buffer pH* 8.9 (uncorrected for the deuterium isotope effect on the pH glass electrode) in D2O. […] All the NMR experiments were performed on a Bruker Avance 800.23 MHz at 278 K. Binding epitope mappings were obtained by determining the initial slopes (STD0) calculated by performing a least-squares fitting of the following monoexponential curve: [drawing 1] where STD(tsat) is the STD intensity for a saturation time, tsat, STDmax is the maximum STD intensity and ksat is the rate constant for saturation transfer. […]

WWP1, sequence (Q9H0M0 546-922 limits assumed): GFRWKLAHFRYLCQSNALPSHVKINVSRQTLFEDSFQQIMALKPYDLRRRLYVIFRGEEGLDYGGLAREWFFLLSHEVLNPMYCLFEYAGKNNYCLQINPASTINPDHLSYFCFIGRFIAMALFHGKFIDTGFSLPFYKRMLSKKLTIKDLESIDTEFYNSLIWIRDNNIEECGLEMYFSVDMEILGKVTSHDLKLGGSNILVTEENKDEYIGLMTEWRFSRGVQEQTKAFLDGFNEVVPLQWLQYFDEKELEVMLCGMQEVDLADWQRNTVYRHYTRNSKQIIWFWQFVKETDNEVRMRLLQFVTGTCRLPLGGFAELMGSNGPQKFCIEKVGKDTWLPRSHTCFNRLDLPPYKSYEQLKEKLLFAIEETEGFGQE

STD intensities, WWP1-I3C complex: ~30%
Compound: OCc1c[nH]c2ccccc12 [Compound I3C, Indole-3-carbinol, reference compound]
